Results reported in article PMC8478281, “Targeting the FtsZ Allosteric Binding Site with a Novel Fluorescence Polarization Screen, Cytological and Structural Approaches for Antibacterial Discovery” (Journal of Medicinal Chemistry, 2021).
In brackets after ≈: the same amount, converted by molar mass.

Key:
[1] = tested on: Staphylococcus haemolyticus; assay: Minimal growth inhibitory concentration, S. haemolyticus; type: cell-based
Protocol: (§1) B. subtilis 168 and Staphylococcus spp. were grown in cation adjusted Mueller–Hinton broth (CAMHB; Becton, Dickinson and Company) at 37 °C. B. subtilis SU570 were grown in the same medium at 30 °C. In all cases, the cells were grown to an absorbance of 0.1–0.2 at 600 nm and then incubated either with the compounds or DMSO vehicle. Microscopy assays and cell measurement were performed as previously described.[31] MIC values were determined by a broth macrodilution method.[51] MBC values were determined as the lowest concentration of inhibitor at which there was a 99.9% reduction in colony-forming units/mL compared to the inoculum. To construct a S. aureus strain expressing FtsZ-mCherry, the plasmid pCN-ftsZmch[9] was electroporated into RN4220 and 0.1 μM cadmium chloride (Sigma-Aldrich) was used to induce the expression of the construct under the control of the Pcad promoter.

[2] = tested on: S. aureus subsp. aureus (ATCC 25923); assay: Minimal growth inhibitory concentration, S. aureus subsp. aureus; type: cell-based; settings: Staphylococcus aureus, ATCC25923
Protocol: as §1

[3] = target: T1, stabilized polymers of FtsZ from B. subtilis (Bacillus subtilis, UniProt P17865); assay: Competition assay: displacement of probe (R)-5 from stabilized BsFtsZ-GMPCPP polymers; type: binding; settings: stabilized polymers of FtsZ from B. subtilis; probe (R)-5; mean ± SEM; read-out: KD
T1 construct: made in house

S. aureus Mu50 [4] = assay: Minimal growth inhibitory concentration (broth macrodilution), S. aureus Mu50; type: cell-based, Staphylococcus aureus; settings: Staphylococcus aureus, MU50, read-out: MIC S. aureus Mu50
Summary of the method: (§2)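 Strains grown in cation-adjusted Mueller–Hinton broth at 37 °C (B. subtilis SU570 at 30 °C) to A600 0.1–0.2, then exposed to compounds or DMSO. MIC by broth macrodilution; division phenotype assessed by microscopy and cell measurement.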

S. aureus Mu50 [5] = assay: Minimal division inhibitory concentration, S. aureus Mu50; type: cell-based; settings: Staphylococcus aureus, MU50, read-out: MDC S. aureus Mu50
Protocol: as §1

B. subtilis [6] = assay: Minimal division inhibitory concentration and cell division phenotype, B. subtilis; type: cell-based, Bacillus subtilis; settings: Bacillus subtilis, read-out: MDC B. subtilis
Summary of the method: as §2

[7] = tested on: Staphylococcus epidermidis; assay: Minimal growth inhibitory concentration, S. epidermidis; type: cell-based
Protocol: as §1

B. subtilis [8] = assay: Minimal growth inhibitory concentration (broth macrodilution), B. subtilis; type: cell-based, Bacillus subtilis; settings: Bacillus subtilis, read-out: MIC B. subtilis
Summary of the method: as §2

[9] = Solubility in HEPES buffer with 2% DMSO, spectrophotometric; type: physicochemical; settings: HEPES buffer containing 2% DMSO, 25 °C, aqueous buffer, kinetic from dmso stock; HEPES buffer pH 6.8 containing 2% DMSO
[10] = target: T2, FtsZ-GMPCPP polymers (BsFtsZ) (Bacillus subtilis, UniProt P17865); assay: Binding titration of the fluorescent probes to FtsZ polymers by fluorescence anisotropy
T2 construct: made in house
Protocol: (§3) FtsZ from B. subtilis (BsFtsZ) was prepared as described previously.[35] FtsZ was assembled in 50 mM N-(2-hydroxyethyl)piperazine-N′-ethanesulfonic acid (HEPES)-KOH, 50 mM KCl, 1 mM ethylenediaminetetraacetic acid (EDTA), pH 6.8 (HEPES buffer) plus 10 mM MgCl2, and 1 mM GTP or 0.1 mM GMPCPP at 25 °C. FtsZ assembly was monitored by light scattering.[34]
The fluorescence spectra and anisotropy values of the different probes were acquired with a Fluoromax-4 (Horiba Jobin Yvon) photon-counting L-format spectrofluorometer using 2 mm × 10 mm cells at 25 °C, employing the maximum excitation and emission wavelength for each probe with 2 and 5 nm bandwidths, respectively. Anisotropy values were automatically measured as r = (Ivv – G Ivh)/(Ivv + 2G Ivh), where the subscripts refer to the vertical (v) or horizontal (h) positions of the excitation (first subscript) and emission (second subscript) polarizers, and G = Ihv/Ihh. Total intensity values were simultaneously determined as IT = Ivv +2G Ivh. Note that measurement correction procedures with T-format (double channel) fluorometers and with plate readers are slightly different.
(§4) FtsZ (10–15 μM) was assembled in HEPES buffer, 10 mM MgCl2, 50 μM GMPCPP at 25 °C for 10 min, and then 0.15% (v/v) glutaraldehyde[36] (distilled grade for microscopy, TAAB Laboratories, U.K.) was added to the solution that was incubated at 25 °C for 10 min more. (This was the minimal glutaraldehyde concentration determined to stabilize FtsZ polymers specifically binding probe 1.) The remains of the cross-linking agent were quenched by adding 60 mM NaBH4, the sample was incubated on ice for 10 min and degassed.[36] Cross-linked polymers were centrifuged for 10 min at 8200g (5000 rpm) and 4 °C in 15 mL Falcon tubes employing a Rotina 380R (Hettich) centrifuge, the supernatant was removed and the pellet was resuspended in the same volume of HEPES buffer, 10 mM MgCl2, containing 5 μM GMPCPP. Fixed FtsZ polymers were active in binding assays after more than 2 days at 4 °C; they could also be frozen in liquid nitrogen with a small loss of binding capacity. […] Cross-linked polymers of SaFtsZ were similarly prepared.
Binding affinity of the probes to FtsZ was measured by an increase in anisotropy of the probe (adapted from ref ([49])). Fixed concentrations of the probes (3 μM) were titrated with different FtsZ polymer concentrations (0–40 μM) in HEPES buffer with Mg^2+, to obtain the anisotropy increment, Δrmax, corresponding to the bound probe. The increase in anisotropy was plotted against the FtsZ polymer concentration (calculated by subtracting from the total protein concentration the critical concentration for polymerization under the same conditions) and iteratively least-squares fitted with an isotherm of binding to one site. The estimated values of Δrmax were used to approximate the free FtsZ concentrations, and these new values were employed again until an unchanging Δrmax value was obtained. The convergent data were used to calculate the binding constant of the fluorescent probe to FtsZ polymers (Table S1).

B. subtilis [11] = tested on: B. subtilis; parameters: method as in earlier work; settings: Table S1; ref 1 (Artola et al., Chem. Sci. 2017); cited from earlier work
BsFtsZ = target: T3, BsFtsZ (Bacillus subtilis, UniProt P17865); assay: Fluorescence anisotropy of probes after consecutive additions of FtsZ, GMPCPP, MgCl2 and PC190723; type: binding
T3 construct: made in house
Protocol: (A) Fluorescence anisotropy values of the free probes (10 μM) in buffer, to which FtsZ (10 μM, unassembled) was added, followed by the slowly hydrolyzable GTP analogue GMPCPP (0.1 mM). BsFtsZ polymerization was then induced by the addition of MgCl2 (10 mM) and anisotropy values were recorded 5–10 min later. Nonfluorescent PC190723 (10 μM) was subsequently added to displace the fluorescent probe and anisotropy was measured 5 min later. (B) Fluorescence microscopy images of B. subtilis cells treated for 1.5 h with the minimal division inhibitory concentrations (MDC) of (S)-2 and each enantiomer of 5 (Table S1), acquired employing the probe fluorescence.
as §3

[12] = target: T4, stabilized SaFtsZ polymers (Staphylococcus aureus, UniProt P0A031); assay: Competition assay with stabilized SaFtsZ polymers; type: binding; settings: read-out: KD (in parenthesis) (converted)
T4 construct: Full-length S. aureus FtsZ (SaFtsZ); made in house
Protocol: Full-length S. aureus FtsZ (SaFtsZ) and the truncated protein SaFtsZ(12–315) were purified as described.[34] SaFtsZ was assembled in 50 mM MES, 50 mM KCl, 1 mM EDTA, pH 6.5 plus 10 mM MgCl2, and 0.1 mM GMPCPP.
as §4
Competition assays were performed by measuring, through the decrease in fluorescence anisotropy, the displacement of the fluorescent probes from stabilized FtsZ polymers. Increasing concentrations of competing ligands were added to the mixtures of cross-linked FtsZ polymers (10–15 μM) with probe 1 (3 μM), 7–8 μM FtsZ polymers with probe (S)-2 (3 μM), or 2–3 μM FtsZ polymers with (R)-5 (3 μM). HEPES buffer with 10 mM MgCl2 and 0.1 mM GMPCPP was employed, with a final volume of 0.5 mL, and the anisotropy measured at 25 °C. Under these conditions, the initial fraction of the probe bound was between 0.4 and 0.5. The fraction of the probe bound (Vb) was calculated [drawing 1] where rfree and rmax are the anisotropy values of the free and bound probes, respectively, and R is the ratio between the fluorescence intensities of the bound and free probe (Table S1). The binding data were plotted against the competing ligand concentration and fitted by competition equilibrium of the ligand and the probe for the same binding site. The resulting system of equations[50] was numerically solved using the Equigra v. 5.0 program,[33] which provided the best-fitted value of the competitor binding constant.

MTT cytotoxicity assay = type: cell-based; settings: human, IMR90 lung fibroblast cells, relative to vehicle
Protocol: The sensitivity of the IMR90 cell line to compounds was tested through a standard 3-(4,5-dimethylthiazol-2-yl)-2,5-diphenyltetrazolium bromide (MTT) assay.[52] The results were reported as the viability percentage of the tested compound relative to vehicle (DMSO), obtained from two or three independent experiments performed in triplicate.

B. subtilis 168 = assay: Cell length of B. subtilis 168 incubated with FtsZ inhibitors; type: cell-based, Bacillus subtilis; parameters: unit of the concentration uncertain; unit not given here; settings: B. subtilis 168, 3 h, 1 (unit uncertain) as printed
Protocol: Figure 4 Fluorescence anisotropy screen for FtsZ allosteric inhibitors combined with cell-based methods. (A) Screen for FtsZ inhibitors employing the fluorescence anisotropy of probe (S)-2 (3 μM) and stabilized FtsZ-GMPCPP polymers (8 μM binding sites). […] Control values with the corresponding concentrations of dimethyl sulfoxide (DMSO) vehicle (2% void and gray circles; 4%, black circle) are also shown. […] Raw data plots (n ≥ 30) are shown with the mean values marked (statistics in Table S2). The cells were incubated for 3 h with each compound, and cell lengths were measured. (D) Representative phase-contrast images of cells after 3 h with 7 or 9 (0.75 mM each). (E) Cellular localization of FtsZ-GFP in B. subtilis SU570 following growth for 1.5 h in the absence (inset) and presence of 7 (0.2 mM). Bars, 10 μm.
as §1, with “MBC values were determined as the lowest concentration of inhibitor at which there was a 99.9% reduction in colony-forming units/mL compared to the inoculum.” left out, “promoter. […]” for “promoter.”

S. aureus = assay: Minimal bactericidal concentration; type: cell-based; settings: Staphylococcus aureus; 99.9% reduction in colony-forming units/mL
Protocol: as §1

[13] = FtsZ-GMPCPP polymers, best fit values from binding titrations
[14] = binding to stabilized FtsZ polymers

T2 sequence (P17865 whole entry): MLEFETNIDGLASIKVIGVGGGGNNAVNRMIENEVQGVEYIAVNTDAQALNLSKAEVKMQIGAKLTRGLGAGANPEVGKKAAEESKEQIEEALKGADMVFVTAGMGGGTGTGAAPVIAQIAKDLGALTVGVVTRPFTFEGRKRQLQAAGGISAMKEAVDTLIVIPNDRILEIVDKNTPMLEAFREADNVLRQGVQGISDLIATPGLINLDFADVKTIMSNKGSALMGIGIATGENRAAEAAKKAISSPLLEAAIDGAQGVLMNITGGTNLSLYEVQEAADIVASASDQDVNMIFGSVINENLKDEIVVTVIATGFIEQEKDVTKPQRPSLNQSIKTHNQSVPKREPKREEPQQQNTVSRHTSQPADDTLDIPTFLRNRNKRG
T3 sequence (P17865 whole entry): as above
T1 sequence (P17865 whole entry): as above
T4 sequence (P0A031 whole entry): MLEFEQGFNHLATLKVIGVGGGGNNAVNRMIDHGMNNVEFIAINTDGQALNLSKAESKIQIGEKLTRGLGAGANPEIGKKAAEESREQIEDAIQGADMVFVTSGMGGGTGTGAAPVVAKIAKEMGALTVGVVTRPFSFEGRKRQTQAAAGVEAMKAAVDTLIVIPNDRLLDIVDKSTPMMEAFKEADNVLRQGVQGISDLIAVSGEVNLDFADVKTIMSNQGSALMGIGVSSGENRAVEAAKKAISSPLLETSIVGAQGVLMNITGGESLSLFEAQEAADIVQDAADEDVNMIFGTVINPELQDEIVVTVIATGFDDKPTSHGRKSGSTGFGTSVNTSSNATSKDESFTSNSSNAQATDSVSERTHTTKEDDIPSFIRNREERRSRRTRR

| Compound | MIC [1] [µM] | MIC [2] [µM] | Kd [3] [nM] | MIC (S. aureus Mu50 [4]) [µM] | minimal effective concentration (S. aureus Mu50 [5]) [µM] | minimal effective concentration (B. subtilis [6]) [µM] | MIC [7] [µM] | MIC (B. subtilis [8]) [µM] | solubility [9] [µM] | Kd [12] [nM] | MBC (S. aureus) [µM] | further results |
| --- | --- | --- | --- | --- | --- | --- | --- | --- | --- | --- | --- | --- |
| CCCC(COc1ccc(F)c(C(N)=O)c1F)Nc1cccc(C(F)(F)F)c1 (racemic) [rac-26, 2,6-Difluoro-3-[(2-{[3-(trifluoromethyl)phenyl]amino}pentyl)oxy]benzamide] | 50 (≈ 20.1 µg/mL) | 100 (≈ 40.2 µg/mL) | 1100 ± 100 | 50 (≈ 20.1 µg/mL) | 25 | 2.5 | 50 (≈ 20.1 µg/mL) | 5 (≈ 2.01 µg/mL) | 50 (≈ 20.1 µg/mL) | – | – | – |
| NC(=O)c1c(F)ccc(OCCNc2ccc([N+](=O)[O-])c3nonc23)c1F [Compound 1, reference compound] | – | – | – | – | – | – | – | – | – | – | – | Imax/Imin [10, 13]: 1.0; rmax (all probe bound) [10, 13]: 0.213; rmin (free probe) [10, 13]: 0.024; Kd [10, 13]: 26000 ± 3000 nM; Kd [10, 14]: 17000 ± 1000 nM; Imax/Imin [10, 14]: 1.0; rmax (all probe bound) [10, 14]: 0.26; rmin (free probe) [10, 14]: 0.024; MIC B. subtilis (B. subtilis [11]): 800 µM (≈ 303 µg/mL); Fluorescence anisotropy (r): + PC190723 (BsFtsZ; PC190723 10 μM added to the polymer, 5 min): 0.029; Fluorescence anisotropy (r): free probe (BsFtsZ; probe 10 μM in buffer): 0.022; Fluorescence anisotropy (r): + FtsZ (unassbld.) (BsFtsZ; probe 10 μM, FtsZ 10 μM): 0.027; Fluorescence anisotropy (r): + GMPCPP (BsFtsZ; probe 10 μM, FtsZ 10 μM, GMPCPP 0.1 mM): 0.026; Fluorescence anisotropy (r): + MgCl2 (polymer) (BsFtsZ; probe 10 μM, FtsZ 10 μM, GMPCPP 0.1 mM, MgCl2 10 mM, 5–10 min): 0.080 |
| CCC[C@H](COc1ccc(F)c(C(N)=O)c1F)Nc1cccc(C(F)(F)F)c1 [(R)-26] | 25 (≈ 10.1 µg/mL) | 25 (≈ 10.1 µg/mL) | 200 ± 100 | 25 (≈ 10.1 µg/mL) | 10 | 1 | 25 (≈ 10.1 µg/mL) | 2.5 (≈ 1.01 µg/mL) | 100 (≈ 40.2 µg/mL) | < 100 | 25 (≈ 10.1 µg/mL) | viability at 25 µM (MTT cytotoxicity assay; IMR90, 25 µM): 100 ± 1%; length (B. subtilis 168): 17.6 ±0.8 |
| NC(=O)c1c(F)ccc(OCc2cccc(C(F)(F)F)c2)c1F [Compound 20, 2,6-Difluoro-3-{[3-(trifluoromethyl)benzyl]oxy}benzamide] | 25 (≈ 8.28 µg/mL) | 25 (≈ 8.28 µg/mL) | 700 ± 200 | 50 (≈ 16.6 µg/mL) | 50 | 10 | 25 (≈ 8.28 µg/mL) | 25 (≈ 8.28 µg/mL) | 50 (≈ 16.6 µg/mL) | 700 ± 200 | 100 (≈ 33.1 µg/mL) | viability at 50 µM (MTT cytotoxicity assay; IMR90, 50 µM): 84 ± 5% |
